Measurements taken from patent US20250320194A1, “PHARMACEUTICALLY ACCEPTABLE SALT AND CRYSTAL FORM OF FUSED PYRIDINE RING DERIVATIVE AND PREPARATION METHOD THEREFOR” (Jiangsu Hengrui Pharmaceuticals Co., Ltd., priority 2021, published 2025).

Target: T1, HIV-1 capsid protein (Human immunodeficiency virus type 1 group M subtype B, UniProt P12493)
T1 construct: made in house
Assay: In vitro polymerization of HIV-1 capsid protein (HTRF, His-CA/GST-CA)
Assay type: biochemical, HIV-1 NL4-3
Description: • 1. MAb Anti GST-Eu cryptate (Cisbio) • 2. MAb Anti 6HIS-XL665 (Cisbio) • 3. His tag HIV-1 capsid protein (hereinafter referred to as His-CA) • 4. GST tag HIV-1 capsid protein (hereinafter referred to as GST-CA) • 5. 384-well unbound surface microplate, white (Corning) • 6. Microplate reader (BMG)
The HIV-1 capsid proteins aggregate spontaneously in high-salt solutions. Capsid protein derived from HIV-1 NL4-3 strains were separately tagged and expressed with 6His tag and GST tag, and purified. His-CA and GST-CA were mixed at high-salt concentrations, and the level of polymerization of capsid proteins was detected using GST antibody labeled with Eu3+-Cryptate (energy donor) and His antibody labeled with XL665 (energy acceptor). […]
His-CA was diluted to […] in a clean tube with protein diluent (50 mM Tris-HCl, pH 8.0, 50 mM NaCl, 0.4 mM MgCl2, 0.05% Triton X-100, 2% glycerol) while MAb Anti 6HIS-XL665 at a final concentration of 260 nM was added; GST-CA was diluted to 20 nM with protein diluent in another clean tube while MAb Anti GST-Eu cryptate at a final concentration of 3.33 nM was added and incubated on ice for half an hour. […] After incubation, the samples were excited with an excitation light at 337 nM, and signal values at 620 nM and 665 nM were collected for detection, wherein Ratio values=(665 nM/620 nM signal)*10000 was calculated according to the signal values. EC50 values for compounds were calculated using Graphpad Prism software based on each concentration of the compounds and the corresponding Ratio values.

`CC(C)(C#Cc1nc([C@H](Cc2cc(F)cc(F)c2)NC(=O)Cn2nc(C(F)(F)F)c3c2C(F)(F)[C@@H]2C[C@H]32)c(-c2ccc(Cl)c3c(NS(C)(=O)=O)nn(CC(F)(F)F)c23)c2c1CCC2)S(C)(=O)=O` (atropisomer, axis not shown; (aR)) [The compound of formula (I), N—((S)-1-((R)-4-(4-chloro-3-(methanesulfonamide)-1-(2,2,2-trifluoroethyl)-1H-indazol-7-yl)-1-(3-methyl-3-(methylsulfonyl)but-1-yn-1-yl)-6,7-dihydro-5H-cyclopenta[c]pyridin-3-yl)-2-(3,5-difluorophenyl)ethyl)-2-((3bS,4aR)-5,5-difluoro-3-(trifluoromethyl)-3b,4,4a,5-tetrahydro-1H-cyclopropa[3,4]cyclopenta[1,2-c]pyrazol-1-yl)acetamide] was tested. Which EC50 did it give?
The EC50 was 9 nM.

And the Emax?
The Emax was 100%.

What about the “inhibition effect on the polymerization of HIV-1 capsid proteins” value (conclusion in words) of the same molecule?
Its value is “significant inhibition effect”.
